Assay results published in US10064873B2, “Compounds and compositions for treating HIV with derivatives of Betulin” (GlaxoSmithKline LLC, priority 2011, dated 2018).
Where two headings read alike, the source gives them in different places.

Tested on: HIV NL4-3 wt
Assay: MT4 antiviral assay, NL4-3 strain wild type
Type: cell-based, HIV-1
[1] = Human immunodeficiency virus 1, NL43, MT4 cells, read-out: EC50 NL4-3 wt
[2] = Human immunodeficiency virus 1, NL43, MT4, read-out: EC50 NL4-3 wt (nM)

SMILES | EC50 [1] [nM] | EC50 [2] [nM]
CC(C)C1=C2[C@H]3CC[C@@H]4[C@@]5(C)CC[C@H](OC(=O)CC(C)(C)C(=O)O)C(C)(C)[C@@H]5CC[C@@]4(C)[C@]3(C)CC[C@@]2([C@@H](O)CN2CCN(C)CC2)CC1 (racemic) [Example 65, 4-(((3aS,5aR,5bR,7aR,9S,11aR,11bR,13aS)-3a-((R)-1-hydroxy-2-(4-methylpiperazin-1-yl)ethyl)-1-isopropyl-5a,5b,8,8,11a-pentamethyl-3,3a,4,5,5a,5b,6,7,7a,8,9,10,11,11a,11b,12,13,13a-octadecahydro-2H-cyclopenta[a]chrysen-9-yl)oxy)-2,2-dimethyl-4-oxobutanoic acid] | 83.8 | 
CC(=O)N(Cc1cccc(Cl)c1)C[C@H](O)[C@@]12CC[C@]3(C)[C@H](CC[C@@H]4[C@@]5(C)CC[C@H](OC(=O)CC(C)(C)C(=O)O)C(C)(C)[C@@H]5CC[C@]43C)C1=C(C(C)C)C(=O)C2 [Compound 46] | 11.1 | 
CC(C)C1=C2[C@H]3CC[C@@H]4[C@@]5(C)CC[C@H](OC(=O)CC(C)(C)C(=O)O)C(C)(C)[C@@H]5CC[C@@]4(C)[C@]3(C)CC[C@@]2([C@H](O)CN(CCN(C)C)Cc2ccccc2Cl)CC1=O [Compound 51] | 3.5 | 
CC(C)C1=C2[C@H]3CC[C@@H]4[C@@]5(C)CC[C@H](OC(=O)CC(C)(C)C(=O)O)C(C)(C)[C@@H]5CC[C@@]4(C)[C@]3(C)CC[C@@]2([C@H](CNCc2ccc(Cl)cc2)OC(=O)CC(C)(C)C(=O)O)CC1=O [Example 1, 4-((R)-1-((3aR,5aR,5bR,7aR,9S,11aR,11bR,13aS)-9-((3-carboxy-3-methylbutanoyl)oxy)-1-isopropyl-5a,5b,8,8,11a-pentamethyl-2-oxo-3,3a,4,5,5a,5b,6,7,7a,8,9,10,11,11a,11b,12,13,13a-octadecahydro-2H-cyclopenta[a]chrysen-3a-yl)-2-((4-chlorobenzyl)amino)ethoxy)-2,2-dimethyl-4-oxobutanoic acid] | 41.1 | 
CC(C)C1=C2[C@H]3CC[C@@H]4[C@@]5(C)CC[C@H](OC(=O)CC(C)(C)C(=O)O)C(C)(C)[C@@H]5CC[C@@]4(C)[C@]3(C)CC[C@@]2([C@H](CN(CCN(C)C)Cc2ccc(Cl)cc2)OC(=O)CC(C)(C)C(=O)O)CC1=O [Example 2, 4-((R)-1-((3aR,5aR,5bR,7aR,9S,11aR,11bR,13aS)-9-((3-Carboxy-3-methylbutanoyl)oxy)-1-isopropyl-5a,5b,8,8,11a-pentamethyl-2-oxo-3,3a,4,5,5a,5b,6,7,7a,8,9,10,11,11a,11b,12,13,13a-octadecahydro-2H-cyclopenta[a]chrysen-3a-yl)-2-((4-chlorobenzyl)(2-(dimethylamino)ethyl)amino)ethoxy)-2,2-dimethyl-4-oxobutanoic acid] |  | 5.2
CC(C)C1=C2[C@H]3CC[C@@H]4[C@@]5(C)CC[C@H](OC(=O)CC(C)(C)C(=O)O)C(C)(C)[C@@H]5CC[C@@]4(C)[C@]3(C)CC[C@@]2([C@@H](CNCc2ccc(Cl)cc2)OC(=O)CC(C)(C)C(=O)O)CC1=O [Example 3, 4-[(1S)-1-[(1R,2R,5R,10S,13R,14R, 17S,19R)-17-[(3-carboxy-3,3-dimethylpropanoyl)oxy]-1,2,14,18,18-pentamethyl-7-oxo-8-(propan-2-yl)pentacyclo[11.8.0.0^ {2,10}.0^{5,9}.0^{14,19}]henicos-8-en-5-yl]-2-{[(4-chlorophenyl)methyl]amino}ethoxy]-2,2-dimethyl-4-oxobutanoic acid] | 61.7 | 
CC(C)C1=C2[C@H]3CC[C@@H]4[C@@]5(C)CC[C@H](OC(=O)CC(C)(C)C(=O)O)C(C)(C)[C@@H]5CC[C@@]4(C)[C@]3(C)CC[C@@]2([C@@H](CN(CCN(C)C)Cc2ccc(Cl)cc2)OC(=O)CC(C)(C)C(=O)O)CC1=O [Example 4, 4-((S)-1-((3aR,5aR,5bR,7aR,9S,11aR,11bR,13aS)-9-((3-Carboxy-3-methylbutanoyl)oxy)-1-isopropyl-5a,5b,8,8,11a-pentamethyl-2-oxo-3,3a,4,5,5a,5b,6,7,7a,8,9,10,11,11a,11b,12,13,13a-octadecahydro-2H-cyclopenta[a]chrysen-3a-yl)-2-((4-chlorobenzyl)(2-(dimethylamino)ethyl)amino)ethoxy)-2,2-dimethyl-4-oxobutanoic acid] |  | 10.1
CC(C)C1=C2[C@H]3CC[C@@H]4[C@@]5(C)CC[C@H](OC(=O)CC(C)(C)C(=O)O)C(C)(C)[C@@H]5CC[C@@]4(C)[C@]3(C)CC[C@@]2(CCNCc2ccc(Cl)cc2)CC1=O [Example 5, 4-(((3aR,5aR,5bR,7aR,9S,11aR,11bR,13aS)-3a-(2-((4-Chlorobenzyl)amino)ethyl)-1-isopropyl-5a,5b,8,8,11a-pentamethyl-2-oxo-3,3a,4,5,5a,5b,6,7,7a,8,9,10,11,11a,11b,12,13,13a-octadecahydro-2H-cyclopenta[a]chrysen-9-yl)oxy)-2,2-dimethyl-4-oxobutanoic acid] | 2.6 | 
CC(C)C1=C2[C@H]3CC[C@@H]4[C@@]5(C)CC[C@H](OC(=O)CC(C)(C)C(=O)O)C(C)(C)[C@@H]5CC[C@@]4(C)[C@]3(C)CC[C@@]2(CCNCc2ccccc2)CC1=O [Example 6, 4-(((3aR,5aR,5bR,7aR,9S,11aR,11bR,13aS)-3a-(2-(Benzylamino)ethyl)-1-isopropyl-5a,5b,8,8,11a-pentamethyl-2-oxo-3,3a,4,5,5a,5b,6,7,7a,8,9,10,11,11a,11b,12,13,13a-octadecahydro-2H-cyclopenta[a]chrysen-9-yl)oxy)-2,2-dimethyl-4-oxobutanoic acid] |  | 0.5
CC(C)C1=C2[C@H]3CC[C@@H]4[C@@]5(C)CC[C@H](OC(=O)CC(C)(C)C(=O)O)C(C)(C)[C@@H]5CC[C@@]4(C)[C@]3(C)CC[C@@]2(CCNCc2cccc(Cl)c2)CC1=O [Example 7, 4-(((3aR,5aR,5bR,7aR,9S,11aR,11bR,13aS)-3a-(2-((3-Chlorobenzyl)amino)ethyl)-1-isopropyl-5a,5b,8,8,11a-pentamethyl-2-oxo-3,3a,4,5,5a,5b,6,7,7a,8,9,10,11,11a,11b,12,13,13a-octadecahydro-2H-cyclopenta[a]chrysen-9-yl)oxy)-2,2-dimethyl-4-oxobutanoic acid] |  | 6.1
CC(C)C1=C2[C@H]3CC[C@@H]4[C@@]5(C)CC[C@H](OC(=O)CC(C)(C)C(=O)O)C(C)(C)[C@@H]5CC[C@@]4(C)[C@]3(C)CC[C@@]2(CCNCc2cccc(Cl)c2F)CC1=O [Example 8, 4-(((3aR,5aR,5bR,7aR,9S,11aR,11bR,13aS)-3a-(2-((3-Chloro-2-fluorobenzyl)amino)ethyl)-1-isopropyl-5a,5b,8,8,11a-pentamethyl-2-oxo-3,3a,4,5,5a,5b,6,7,7a,8,9,10,11,11a,11b,12,13,13a-octadecahydro-2H-cyclopenta[a]chrysen-9-yl)oxy)-2,2-dimethyl-4-oxobutanoic acid] | 5.9 | 
CC(C)C1=C2[C@H]3CC[C@@H]4[C@@]5(C)CC[C@H](OC(=O)CC(C)(C)C(=O)O)C(C)(C)[C@@H]5CC[C@@]4(C)[C@]3(C)CC[C@@]2(CCNC2(c3ccc(Cl)cc3)CC2)CC1=O [Example 9, 4-(((3aR,5aR,5bR,7aR,9S,11aR,11bR,13aS)-3a-(2-((1-(4-chlorophenyl)cyclopropyl)amino)ethyl)-1-isopropyl-5a,5b,8,8,11a-pentamethyl-2-oxo-3,3a,4,5,5a,5b,6,7,7a,8,9,10,11,11a,11b,12,13,13a-octadecahydro-2H-cyclopenta[a]chrysen-9-yl)oxy)-2,2-dimethyl-4-oxobutanoic acid] | 12.3 | 
CC(C)C1=C2[C@H]3CC[C@@H]4[C@@]5(C)CC[C@H](OC(=O)CC(C)(C)C(=O)O)C(C)(C)[C@@H]5CC[C@@]4(C)[C@]3(C)CC[C@@]2(CCN(CCN(C)C)C2(c3ccc(Cl)cc3)CC2)CC1=O [Example 11, 4-(((3aR,5aR,5bR,7aR,9S,11aR,11bR,13aS)-3a-(2-((1-(4-Chlorophenyl)cyclopropyl)(2-(dimethylamino)ethyl)amino)ethyl)-1-isopropyl-5a,5b,8,8,11a-pentamethyl-2-oxo-3,3a,4,5,5a,5b,6,7,7a,8,9,10,11,11a,11b,12,13,13a-octadecahydro-2H-cyclopenta[a]chrysen-9-yl)oxy)-2,2-dimethyl-4-oxobutanoic acid] | 6.3 | 
CC(C)C1=C2[C@H]3CC[C@@H]4[C@@]5(C)CC[C@H](OC(=O)CC(C)(C)C(=O)O)C(C)(C)[C@@H]5CC[C@@]4(C)[C@]3(C)CC[C@@]2(CCN(C)Cc2ccc(Cl)cc2)CC1=O [Example 12, 4-(((3aR,5aR,5bR,7aR,9S,11aR,11bR,13aS)-3a-(2-((4-Chlorobenzyl)(methyl)amino)ethyl)-1-isopropyl-5a,5b,8,8,11a-pentamethyl-2-oxo-3,3a,4,5,5a,5b,6,7,7a,8,9,10,11,11a,11b,12,13,13a-octadecahydro-2H-cyclopenta[a]chrysen-9-yl)oxy)-2,2-dimethyl-4-oxobutanoic acid] |  | 4.5
CC(=O)N(CC[C@@]12CC[C@]3(C)[C@H](CC[C@@H]4[C@@]5(C)CC[C@H](OC(=O)CC(C)(C)C(=O)O)C(C)(C)[C@@H]5CC[C@]43C)C1=C(C(C)C)C(=O)C2)Cc1ccc(Cl)cc1 [Example 13, 4-(((3aR,5aR,5bR,7aR,9S,11aR,11bR,13aS)-3a-(2-(N-(4-Chlorobenzyl)acetamido)ethyl)-1-isopropyl-5a,5b,8,8,11a-pentamethyl-2-oxo-3,3a,4,5,5a,5b,6,7,7a,8,9,10,11,11a,11b,12,13,13a-octadecahydro-2H-cyclopenta[a]chrysen-9-yl)oxy)-2,2-dimethyl-4-oxobutanoic acid] | 1.6 | 
CC(C)C1=C2[C@H]3CC[C@@H]4[C@@]5(C)CC[C@H](OC(=O)CC(C)(C)C(=O)O)C(C)(C)[C@@H]5CC[C@@]4(C)[C@]3(C)CC[C@@]2([C@@H](O)CNCc2ccc(Cl)cc2)CC1=O [Example 14, 4-(((3aR,5aR,5bR,7aR,9S,11aR,11bR,13aS)-3a-((R)-2-((4-Chlorobenzyl)amino)-1-hydroxyethyl)-1-isopropyl-5a,5b,8,8,11a-pentamethyl-2-oxo-3,3a,4,5,5a,5b,6,7,7a,8,9,10,11,11a,11b,12,13,13a-octadecahydro-2H-cyclopenta[a]chrysen-9-yl)oxy)-2,2-dimethyl-4-oxobutanoic acid] | 2.1 | 
